Earlier results in PMC3147153 (Clinical cancer research : an official journal of the …, 2009).

System: CYP3A4
Details: in vitro; ref studies done by Ariad Pharmaceuticals; cited from earlier work

CO[C@H]1C[C@@H]2CC[C@@H](C)[C@@](O)(O2)C(=O)C(=O)N2CCCC[C@H]2C(=O)O[C@H]([C@H](C)C[C@@H]2CC[C@@H](O)[C@H](OC)C2)CC(=O)[C@H](C)/C=C(\C)[C@@H](O)[C@@H](OC)C(=O)[C@H](C)C[C@H](C)/C=C/C=C/C=C/1C [sirolimus, reference compound]
metabolism by CYP3A4: primarily metabolized by CYP3A4
